The test system of assay [1] is human dermal fibroblasts (HDFs). Description: Adriamycin-induced cellular senescence, SA-β-gal activity staining, HDFs. The settings on record: 3 days. The assay is classed as cell-based. The procedure: (§1) FIG. 1 represents the effect of quercetin-3-O-β-D-glucuronide (Q3GA) on adriamycin-induced cellular senescence in human dermal fibroblasts (HDFs). Cells treated with 500 nM adriamycin for 4 h were seeded at 500 cells/well in 96 well plates. After treatment with increasing concentrations of Q3GA, cells were incubated for 3 days and cellular senescence assessed by SA-β-gal activity staining. SA-β-gal activity staining (Left) and percentages of SA-β-gal positive cells in HDFs (Right). Representative SA-β-gal staining pictures of 3 independent experiments are shown. Values are means±SDs from 3 independent experiments measured in triplicates. C, control; D, dimethyl sulfoxide; N, 5 mM N-acetylcysteine; R, 500 nM rapamycin. *p<0.05 or **p<0.01 vs DMSO.
HDFs in DMEM with 10% FBS and 1% antibiotics (penicillin 10,000 unit/mL and streptomycin […]) were seeded at 1×10^5 cells per 100 mm culture plate and incubated at 37° C. in 5% CO2 humidified air. When subcultures reached 80-90% confluence, serial passaging was performed by trypsinization. HUVECs in EGM-2 media were cultured under the same conditions. The number of population doublings (PDs) was monitored for further experiments. PD was calculated using the geometric equation: PD=log 2F/log 2I (F, final cell number; I, initial cell number). HDFs in PD<35 and HUVECs in PD<30 were used for adriamycin-induced cellular senescence. […]

For assay [2], the system named is human umbilical vein endothelial cells (HUVECs). Nature of the assay: Adriamycin-induced cellular senescence, SA-β-gal activity staining, HUVECs. Conditions: 3 days. The assay is classed as cell-based. The procedure:
as §1, with “FIG. 2” for “FIG. 1”, “human umbilical vein endothelial cells (HUVECs).” for “human dermal fibroblasts (HDFs).”, “at 1,000” for “at 500”, “in HUVECs” for “in HDFs”
HDFs in DMEM with 10% FBS and 1% antibiotics (penicillin 10,000 unit/mL and streptomycin […]) were seeded at 1×10^5 cells per 100 mm culture plate and incubated at 37° C. in 5% CO2 humidified air. When subcultures reached 80-90% confluence, serial passaging was performed by trypsinization. HUVECs in EGM-2 media were cultured under the same conditions. The number of population doublings (PDs) was monitored for further experiments. PD was calculated using the geometric equation: PD=log 2F/log 2I (F, final cell number; I, initial cell number). […]

Assay [3] deals with p53. Description: Western blot of p53 in adriamycin-treated HDFs. Format: cell-based, human. The settings on record: Q3GA 1 h prior to adriamycin 500 nM 4 h, concentration-dependent. The protocol:
(§2) FIG. 3 represents the effect of Q3GA on the expression levels of p53, pS6K, and p21 proteins in HDFs and HUVECs treated with adriamycin. Cells were treated with the indicated concentrations of Q3GA for 1 h prior to adriamycin treatment and incubated for 4 h. Proteins from cells were extracted and separated. The expression levels of each protein were analyzed by Western blotting. Representative data of 3 independent experiments are shown. NT, not treated with adrimycin; ADR, adriamcyin; C, control; D, dimethyl sulfoxide; N, 5 mM N-acetylcysteine; R, 500 nM rapamycin.
(§3) Each cells were divided into a 60 mm culture dish to the cell number of 1×10^5, and then cultured at 37° C. in a 5% CO2 incubator. […] The amount of the protein in the solution was quantified by bicinchoninic acid (BCA) method (Pierce Biotechnology Inc., Rockford Ill., USA) by using bovine serum albumin as a standard protein.
(§4) Protein (30 μg) was separated by being electrophoresed through a 10% SDS-polyacrylamide gel. […] The membrane was washed five times with TTBS for every 5 min, and then the amounts of p53, p21 and pS6 were measured by using an enhanced chemiluminescence solution. The amount of the specific protein reacted with each antibody was measured by using a LAS-3000 imaging system (Fujifilm Corp., Stanford, Conn., USA). […]
On the technique in general: A western blot detects proteins with antibodies after separation by electrophoresis.

Assay [4] deals with p21. Description: Western blot of p21 in adriamycin-treated HDFs. The assay is classed as cell-based, human. The settings on record: Q3GA 1 h prior to adriamycin 500 nM 4 h, concentration-dependent. The protocol: as §2, §3, §4
Assay [5] deals with p53. Description: Western blot of p53 in adriamycin-treated HUVECs. Conditions: Q3GA 1 h prior to adriamycin 500 nM 4 h, concentration-dependent. The assay is classed as cell-based, human. The protocol: as §2, §3, §4
The subject of assay [6] is p21. Nature of the assay: Western blot of p21 in adriamycin-treated HUVECs. Format: cell-based, human. The settings on record: Q3GA 1 h prior to adriamycin 500 nM 4 h, concentration-dependent. The protocol: as §2, §3, §4
Assay [7] concerns human dermal fibroblasts (HDFs). Nature of the assay: Intracellular ROS (DCF fluorescence, flow cytometry) in adriamycin-treated HDFs. Format: cell-based. Conditions: Q3GA 10 μg/ml, 3 days. The protocol:
(§5) FIG. 4 represents the effect of Q3GA on intracellular ROS levels increased by adriamycin treatment in HDFs. Young cells (1.5×10^5) treated with or without adrimcyin were seeded in 60 mm culture dishes and incubated for 24 h. Following treatment of cells with 10 µg/mL of Q3GA, 0.5% DMSO, 5 mM NAC, or 500 nM rapamcyin for 3 days, cells were loaded with 250 µM H2DCFDA for 20 min. The DCF fluorescence intensity of each population of 10,000 cells was measured by flow cytometry. Representative data from three independent experiments are shown. Median fluorescence intensities were obtained and compared. Values are means±SDs from 3 independent experiments. NT, not treated with adrimycin; ADR, adriamcyin; C, control; D, dimethyl sulfoxide; N, 5 mM N-acetylcysteine; R, 500 nM rapamycin. *p<0.05 vs DMSO.
(§6) Each cells were divided into a 100 mm culture dish to the cell number of 1.5×10^5, and then cultured at 37° C. in a 5% CO2 incubator for 3 days. The cells were washed two times with DMEM medium containing antibiotics, and then adriamycin 500 nM was treated thereto for 4 hours. The cells were separated by treating trypsin-EDTA solution (2.5%), and then divided again into a 60 mm culture dish to the cell number of 1×10^5 followed by culturing at 37° C. in a 5% CO2 incubator. […] ROS was measured by using BD FACS Canto II flow cytometry (BD Biosciences, San Jose, Calif.).
A general note: A flow cytometer gives signals particle by particle.

The test system of assay [8] is human umbilical vein endothelial cells (HUVECs). Description: Intracellular ROS (DCF fluorescence, flow cytometry) in adriamycin-treated HUVECs. The assay is classed as cell-based. Conditions: Q3GA 10 μg/ml, 3 days. The procedure:
as §5, with “FIG. 5” for “FIG. 4”, “in HUVECs.” for “in HDFs.”
as §6

For assay [9], the system named is human dermal fibroblasts (HDFs). Nature of the assay: Replicative senescence, SA-β-gal activity staining, old HDFs. Conditions: old HDFs (PD>75); increasing Q3GA concentration; 3 days; concentration-dependent. Format: cell-based. The protocol: FIG. 6 represents the effect of Q3GA on replicative senescence of HDFs. Old cells (3×10^4/well) were seeded in 6 well plates and incubated with or without 10 µg/mL of Q3GA for 3 days. Cellular senescence was assessed by SA-β-gal activity staining. Representative pictures of 3 independent experiments are shown. Percentages of SA-β-gal positive cells were measured. Values are means±SDs from 3 independent experiments. O, old cells; D, dimethyl sulfoxide; N, 5 mM N-acetylcysteine; R, 500 nM rapamycin. *p<0.05 or **p<0.05 vs DMSO.
(§7) HDFs in DMEM with 10% FBS and 1% antibiotics (penicillin 10,000 unit/mL and streptomycin […]) were seeded at 1×10^5 cells per 100 mm culture plate and incubated at 37° C. in 5% CO2 humidified air. When subcultures reached 80-90% confluence, serial passaging was performed by trypsinization. HUVECs in EGM-2 media were cultured under the same conditions. The number of population doublings (PDs) was monitored for further experiments. PD was calculated using the geometric equation: PD=log 2F/log 2I (F, final cell number; I, initial cell number). HDFs in PD<35 and HUVECs in PD<30 were used for adriamycin-induced cellular senescence. HDFs in PD>75 and HUVECs in PD>50 were used as old cells under replicative senescence.
The effect of single component on cellular senescence was examined by SA-β-gal activity staining. […]

For assay [10], the system named is human umbilical vein endothelial cells (HUVECs). Description: Replicative senescence, SA-β-gal activity staining, old HUVECs. Format: cell-based. The settings on record: old HUVECs (PD>50); increasing Q3GA concentration; 3 days; concentration-dependent. The protocol: FIG. 7 represents the effect of Q3GA on replicative senescence of HUVECs. […] Cellular senescence was assessed by SA-β-gal activity staining. Representative pictures of 3 independent experiments are shown. Percentages of SA-β-gal positive cells were measured. Values are means±SDs from 3 independent experiments. O, old cells; D, dimethyl sulfoxide; N, 5 mM N-acetylcysteine; R, 500 nM rapamycin. *p<0.05 or **p<0.05 vs DMSO.
as §7
The effect of single component on cellular senescence was examined by SA-β-gal activity staining. Each single component was treated in a 24-well culture plate or a 12-well culture plate for 3 days, and then the cells were washed with phosphate buffer. […]

[11] abbreviates: Q3GA 10 μg/ml, adriamycin 500 nM 4 h.
Setting [12] is: increasing concentrations of Q3GA.

In the case of `O=C(O)[C@H]1O[C@@H](Oc2c(-c3ccc(O)c(O)c3)oc3cc(O)cc(O)c3c2=O)[C@H](O)[C@@H](O)[C@@H]1O` [Q3GA, quercetin-3-O-β-D-glucuronide], the “SA-β-gal activity staining increased by adriamycin” value in [1] (setting [11]) and in assay [2] (setting [11]) was “reduced by Q3GA treatment” in each case. In addition, the “SA-β-gal activity increased by adriamycin, concentration dependence” value in [1] (setting [12]) and in assay [2] (setting [12]) was “reduced as Q3GA concentration was increased” each time. Also, the “level of p53 protein increased by adriamycin” value with p53 [3] and in the assay on p53 [5] was “reduced” each time. Further, the “level of p21 protein increased by adriamycin” value in the assay on p21 [4] and in the assay with p21 [6] was “reduced” throughout. Further, the “intracellular ROS levels augmented by adriamycin (DCF fluorescence intensity)” value in assay [7] and in assay [8] was “decreased intracellular ROS levels” throughout. Besides, the “SA-β-gal activity under replicative senescence” value in [9] and in [10] was “decreased SA-β-gal activity” each time.

The values above are taken from patent US20150290231A1, “COMPOSITION FOR INHIBITING CELLULAR SENESCENCE COMPRISING QUERCETIN-3-O-beta-D-GLUCURONIDE” (INDUSTRY-ACADEMIC COOPERATION FOUNDATION, YEUNGNAM …, priority 2012, published 2015).
